Experimental data: US20210113456A1, “PHARMACEUTICAL COMPOSITIONS OF RAMELTEON AND METHODS OF USE THEREOF” (MAXINASE LIFE SCIENCES LIMITED, priority 2017, published 2021)

Assays:
MT1 receptors = MT1 receptors (Homo sapiens, UniProt P48039); details: relative to parent drug; cited from earlier work
MT2 receptors = target: T1, MT2 receptors (Homo sapiens, UniProt P49286); details: relative to parent drug; cited from earlier work
T1 sequence (P49286 1-362): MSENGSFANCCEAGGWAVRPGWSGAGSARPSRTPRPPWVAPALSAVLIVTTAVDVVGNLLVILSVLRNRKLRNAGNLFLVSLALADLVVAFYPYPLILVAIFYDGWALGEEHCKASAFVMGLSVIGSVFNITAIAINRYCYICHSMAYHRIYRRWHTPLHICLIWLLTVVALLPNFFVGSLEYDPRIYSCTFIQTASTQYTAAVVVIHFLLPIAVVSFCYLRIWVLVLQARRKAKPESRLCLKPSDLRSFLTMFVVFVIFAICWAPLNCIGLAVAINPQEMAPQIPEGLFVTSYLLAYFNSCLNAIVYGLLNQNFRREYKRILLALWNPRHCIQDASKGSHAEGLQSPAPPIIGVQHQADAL

hepatic tumors = details: high concentration; chronic toxicology study; cited from earlier work
[1] = Pharmacokinetics of ramelteon after nasal and oral administration; design: species or system SD rats; details: Sprague-Dawley (SD), rat, in vivo
Experimental: The objective was to study the pharmacokinetics of Ramelteon by determining the plasma concentrations after oral and intranasal administration. SD rats (n=3-4 for each dose) received an intranasal dose (0.1 mg/animal) of nasal solution composition (RNS-01, 2.5 mg/mL) which was prepared according to the EXAMPLE 1 of this invention, and an oral dose (0.1 mg/animal) of […] oral solution (ROS-01) which was prepared by directly dissolving ramelteon into saline solution to the final concentration of 0.1 mg/mL. Multiple blood samples were collected from tail vein until 6 hrs. Ramelteon concentration in rat plasma was determined using a validated LC/MS/MS method. The standard non-compartmental method was used to generate the pharmacokinetic parameters.

Caco-2 monolayer = experiment: Permeability through Caco-2 monolayer; assay type: in vitro ADME; details: in vitro
[2] = cited from earlier work
[3] = system: other CNS receptors associated with sedation (e.g., GABA, dopamine, opiate, serotonin); details: cited from earlier work

Sequence of MT1 receptors (P48039 whole entry): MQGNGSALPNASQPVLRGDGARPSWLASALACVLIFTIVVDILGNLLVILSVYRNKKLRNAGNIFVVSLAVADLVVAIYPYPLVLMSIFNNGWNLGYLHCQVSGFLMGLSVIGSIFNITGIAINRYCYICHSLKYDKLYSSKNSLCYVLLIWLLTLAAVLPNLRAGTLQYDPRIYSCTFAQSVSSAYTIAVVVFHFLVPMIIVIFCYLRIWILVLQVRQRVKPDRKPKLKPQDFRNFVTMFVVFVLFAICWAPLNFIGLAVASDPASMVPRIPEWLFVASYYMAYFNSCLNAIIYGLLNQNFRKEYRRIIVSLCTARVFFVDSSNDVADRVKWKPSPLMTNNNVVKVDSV

Row | Structure (SMILES) | binding affinity for MT1 receptor relative to ramelteon (MT1 receptors) | binding affinity for MT2 receptor relative to ramelteon (MT2 receptors) | incidence of hepatic tumors (hepatic tumors) | improvement of bioavailability, intranasal versus oral solution of same dose [1] | permeability through Caco-2 monolayer (Caco-2 monolayer) | increase of systemic exposure (AUC) after co-administration of fluvoxamine ([2]; fluvoxamine, a strong CYP1A2 inhibitor) | inter-subject variability ([2]; oral ramelteon) | affinity for other CNS receptors [3]
1 | CC(O)C(=O)NCCC1CCc2ccc3c(c21)CCO3 (centres unmarked) [M-II] | about one-tenth | one-fifth | increase the incidence of hepatic tumors |  |  |  |  | 
2 | CCC(=O)NCC[C@@H]1CCc2ccc3c(c21)CCO3 [ramelteon] |  |  |  | over 20 fold | high permeability | approximately 190 fold | up to 100% | no affinity
